From BigSolDB 2.1

COC(=O)c1ccnc(N)c1
solubility (mole fraction)
Conditions | 278.15 K | 283.15 K | 288.15 K | 293.15 K | 298.15 K | 303.15 K | 308.15 K | 313.15 K | 318.15 K | 323.15 K
in DMF | 0.00726 | 0.0087 | 0.0105 | 0.0126 | 0.0152 | 0.0183 | 0.0216 | 0.0249 | 0.0292 | 0.0339
in acetonitrile | 0.00539 | 0.00665 | 0.00838 | 0.0104 | 0.0127 | 0.015 | 0.0177 | 0.0206 | 0.0241 | 0.0277
in ethanol | 0.00321 | 0.00385 | 0.0047 | 0.00577 | 0.00694 | 0.00821 | 0.00976 | 0.0114 | 0.0132 | 0.0154
in isopropanol | 0.00385 | 0.0048 | 0.00601 | 0.00728 | 0.00889 | 0.0104 | 0.0122 | 0.0141 | 0.0163 | 0.019
in methanol | 0.00173 | 0.0021 | 0.00255 | 0.00312 | 0.00379 | 0.00453 | 0.00557 | 0.00665 | 0.00798 | 0.00946
in n-propanol | 0.00422 | 0.00528 | 0.00655 | 0.00813 | 0.00977 | 0.0117 | 0.0137 | 0.0163 | 0.019 | 0.0217
in toluene | 0.00824 | 0.00987 | 0.0122 | 0.0147 | 0.0177 | 0.0208 | 0.0243 | 0.0282 | 0.0327 | 0.0377
in water | 0.000935 | 0.00117 | 0.00142 | 0.00178 | 0.00217 | 0.00258 | 0.00302 | 0.00356 | 0.00416 | 0.00489
